Measurements taken from patent US5332754A, “Naphthyloxazolidone derivatives” (Tanabe Seiyaku Co., Ltd., priority 1989, dated 1994).

Key:
MAO-A = target: T1, MAO-A (Rattus norvegicus, UniProt P21396); assay: Inhibitory effect against MAO-A activity of cerebral mitochondrial fraction from rat (in vitro); format: biochemical; conditions: 10^-7 M test compound, serotonin substrate, read-out: Inhibitory rate (%) against MAO-A activity
T1 construct: mitochondorial fraction obtained from cerebral tissue of rats; from tissue; host or cells: rat cerebral tissue, mitochondrial fraction
T1 sequence (P21396 1-526): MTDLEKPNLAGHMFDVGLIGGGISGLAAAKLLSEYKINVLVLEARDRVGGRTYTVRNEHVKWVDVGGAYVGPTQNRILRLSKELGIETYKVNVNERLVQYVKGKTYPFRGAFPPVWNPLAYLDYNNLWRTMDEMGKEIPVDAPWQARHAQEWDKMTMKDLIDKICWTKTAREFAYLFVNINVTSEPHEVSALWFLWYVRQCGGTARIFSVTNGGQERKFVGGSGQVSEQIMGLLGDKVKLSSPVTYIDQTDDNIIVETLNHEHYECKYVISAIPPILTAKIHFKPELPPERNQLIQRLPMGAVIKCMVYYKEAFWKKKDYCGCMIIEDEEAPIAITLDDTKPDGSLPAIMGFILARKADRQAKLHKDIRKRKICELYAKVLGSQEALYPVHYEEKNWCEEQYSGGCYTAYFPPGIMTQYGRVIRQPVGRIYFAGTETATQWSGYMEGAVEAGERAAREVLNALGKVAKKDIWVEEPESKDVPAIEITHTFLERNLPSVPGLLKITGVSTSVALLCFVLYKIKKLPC
Experimental: Inhibitory effect against MAO-A activity of cerebral mitochondorian fraction from rat (in vitro)
(§1) A suspension (7mg protein/ml) of mitochondorial fraction obtained from cerebral tissue of rats in a conventional manner was used as a sample of enzyme, and serotonin was used as the substrate. of MAO-A. The MAO-A activity was estimated in terms of the amount of ammonia produced from serotonin by the enzymatic reaction.
Inhibitory rate of the test compounds (10^-7 M) against the MAO-A activity was calculated according to the following equation. [formula] NH3 (T): the amount of NH3 in test tube (addtion of test compound) NH3 (C): the amount of NH3 in control tube (no addition of test compound)

cerebral MAO-A = assay: Inhibitory effect against cerebral MAO-A activity in mouse (oral administration); format: in vivo; conditions: 30 mg/kg oral, brain excised 45 minutes after administration, serotonin substrate
Experimental: as §1
(§2) Inhibitory effect against cerebral MAO-A and MAO-B activity in mouse.
(§3) A test compound (30 mg/kg) suspended in 0.5% aqueous sodium carboxymethylcellulose (CMC-Na) solution was administered orally to a group of 3 mice. The brain was excised 45 minutes after the administration. A control group was administered with the 0.5% aqueous CMC-Na solution alone.
(§4) The brain tissue was homogenized in 9 volumes of ice-cold distilled water and the homogenate was used as enzyme. MAO-A activity was estimated in the same manner as described in Experiment 1, whereas MAO-B activity was estimated in terms of the amount of benzaldehyde formed from benzylamine according to the method as described in "The Journal of Laboratory and Clinical Medicine, vol.

cerebral MAO-B = assay: Inhibitory effect against cerebral MAO-B activity in mouse (oral administration); format: in vivo; conditions: 30 mg/kg oral, brain excised 45 minutes after administration, benzylamine substrate
Experimental: as §2, §3, §4
Inhibitory rate of the test compound against the MAO-B activity are calculated according to the following equation. [formula] BA(T): the amount of benzaldehyde in the medicated group BA(C): the amount of benzaldehyde in the non-medicated control group

mice = assay: Acute oral toxicity in mice; format: in vivo, mouse; conditions: 2g/kg orally, 2 week-observation period
Description: The naphthyloxazolidone derivative (I)or a pharmaceutically acceptable salt thereof has excellent reversible and selective MAO-A inhibitory activity. Accordingly, the compound (I) or a pharmaceutically acceptable salt thereof is useful as a therapeutic or prophylactic agent for depressive conditions such as depression, senile depression, abulia, axiety, insomnia, anorexia and the like in warm-blood animals including human beings. […] Moreover, the compound (I) or a pharmaceutically acceptable salt thereof is low in toxicity and have high safety as a pharmaceuticals. For example, when 3-(6-cyanoethoxy-2-naphthyl)-5-methoxymethyl-2-oxazolidone was administered orally to mice at a dose of 2g/kg, no mice died during 2 week-observation period.

| SMILES | inhibition at 0.1 µM (MAO-A) | Inhibitory rate (%) MAO-A (cerebral MAO-A) | Inhibitory rate (%) MAO-B (cerebral MAO-B) | mortality (mice) |
| --- | --- | --- | --- | --- |
| COCC1CN(c2ccc3cc(OC(C)=O)ccc3c2)C(=O)O1 (centres unmarked) [OCOCH3, 3-(6-acetyloxy-2-naphthyl)-5-methoxymethyl-2-oxazolidone] | 76.6% | 56.4 ± 7.4% | -3.1 ± 1.8% |  |
| C#CCN(C)Cc1ccccc1 [pargyline, reference compound] |  | 42.0 ± 2.4% | 98.3 ± 5.9% |  |
| COCC1CN(c2ccc3cc(OCCC#N)ccc3c2)C(=O)O1 (centres unmarked) [O(CH2)2 CN, 3-(6-cyanoethoxy-2-naphthyl)-5-methoxymethyl-2-oxazolidone] | 98.1% | 109.2 ± 3.5% | -1.0 ± 2.3% | no mice died |
| COCC1CN(c2ccc3ccccc3c2)C(=O)O1 (centres unmarked) [H, 5-methoxymethyl-3-(2-naphthyl)-2-oxazolidone] | 78.4% |  |  |  |

More lines, main results first:

| inhibition at 0.1 µM (MAO-A) | SMILES | Inhibitory rate (%) MAO-A (cerebral MAO-A) | Inhibitory rate (%) MAO-B (cerebral MAO-B) | mortality (mice) |
| --- | --- | --- | --- | --- |
| 91.7% | COCC1CN(c2ccc3cc(OCCCO)ccc3c2)C(=O)O1 (centres unmarked) [O(CH2)3 OH] | 57.1 ± 4.3% | 1.0 ± 0.8% |  |
| 93.5% | COCC1CN(c2ccc3cc(OCC4CC4)ccc3c2)C(=O)O1 (centres unmarked) | 71.4 ± 4.3% | -4.5 ± 5.9% |  |
| 95.5% | COCC1CN(c2ccc3cc(OCCCC#N)ccc3c2)C(=O)O1 (centres unmarked) [O(CH2)3 CN] | 99.8 ± 16.1% | -1.9 ± 4.8% |  |
| 96.8% | C=CCOc1ccc2cc(N3CC(COC)OC3=O)ccc2c1 (centres unmarked) [OCH2 CHCH2] |  |  |  |
| 98.8% | COCC1CN(c2ccc3cc(OC(C)C)ccc3c2)C(=O)O1 (centres unmarked) [OCH(CH3)2] | 86.8 ± 5.4% | 3.6 ± 5.3% |  |
